The record followed here is patent US9957267B2, “Somatostatin modulators and uses thereof” (Crinetics Pharmaceuticals, Inc., priority 2015, dated 2018).

Common to all, as to assay type: cell-based
Assay [1] addresses T1, human somatostatin receptor subtype 2a (Homo sapiens, UniProt P30874).
T1 construct: expressed in transfected cells
The assay is described as follows: cAMP assay for SSTR2a agonists (HTRF cAMP kit, NKH-477 stimulated). The note with it: CHO cells stably expressing human SSTR2a, 1.6 μM NKH-477. The method, then: (§1) Chinese hamster ovary (CHO) cells stably expressing one of the six human or rodent somatostatin receptor subtypes are grown to 85-100% confluence on standard tissue culture dishes in F12-Ham's growth media (Hyclone) with following additives: 10% donor calf serum (Hyclone), 200 U/mL penicillin (Hyclone), 200 μg/mL streptomycin (Hyclone), 20 mM HEPES (Hyclone), 200 μg/mL hygromycin Hyclone.
(§2) General overview: All SSTR subtypes are Gi coupled G-protein coupled receptors (GPCRs) that lead to decreases in intracellular cyclic AMP (cAMP) when activated by an agonist. Therefore, measurement of intracellular cAMP levels can be used to assess whether compounds of the invention are agonists of SSTR subtypes (John Kelly, Troy Stevens, W. Joseph Thompson, and Roland Seifert, Current Protocols in Pharmacology, 2005, 2.2.1-2.2). One example of an intracellular cAMP assay is described below.
Four days prior to the assay, 5000 Chinese hamster ovary (CHO) cells stably expressing the human somatostatin receptor subtype 2a are plated in each well of a 96-well tissue culture plate (Nest Biotech Cell, flat bottom with low evaporation tissue culture treated; Polystyrene; Non-Pyrogenic) in F12-Ham's media (100 μL/well) supplemented with 200 μg/mL of hygromycin. Incubate at 37 C, 5% CO2, 95% humidity for four days. The cells should reach full confluence. On the day of the assay, various dilutions of the compounds of the invention are prepared in assay buffer (HRTF cAMP kit, Cisbio) in the presence of 1.6 μM NKH-477 (a water-soluble forskolin derivative) and 50 μL of the dilutions are added to the cultured cells and incubated for 20 minutes at 37° C. […] 50 μL of lysis buffer (HRTF cAMP kit, Cisbio) is added to each well and incubated at room temperature for 30 minutes, after which 150 μL assay buffer is added to each well. In a 384-well plate (Grenier, 784-080), 10 μL of assay mixture is added to 10 μL of developing mixture, containing cAMP detection and visualization antibodies are added and the assay is allowed incubate for 1-24 hours at room temperature. The intracellular cAMP concentrations are then measured using a commercially available detection kit (for example, the cAMP HTRF kit, Cisbio). The measured intracellular cAMP concentrations are plotted vs. the concentration of the compounds of the invention and the EC50 of the compounds are calculated using standard methods.

The target of a further assay is T2, SSTR1 (Homo sapiens, UniProt P30872).
T2 construct: expressed in transfected cells
T2 sequence (P30872 whole entry): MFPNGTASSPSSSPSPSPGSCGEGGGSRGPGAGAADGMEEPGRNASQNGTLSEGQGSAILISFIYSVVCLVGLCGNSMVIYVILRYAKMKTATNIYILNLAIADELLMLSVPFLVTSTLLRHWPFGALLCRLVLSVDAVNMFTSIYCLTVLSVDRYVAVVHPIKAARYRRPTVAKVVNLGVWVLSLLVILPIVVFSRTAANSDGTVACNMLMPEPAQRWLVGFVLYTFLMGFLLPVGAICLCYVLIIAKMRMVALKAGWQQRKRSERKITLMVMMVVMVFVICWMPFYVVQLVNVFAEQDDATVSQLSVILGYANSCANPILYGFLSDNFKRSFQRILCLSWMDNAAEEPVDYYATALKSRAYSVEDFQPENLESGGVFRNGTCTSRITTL
Nature of the assay: cAMP functional agonist assay, CHO cells expressing SSTR1. To be noted: CHO cells stably expressing SSTR1, cAMP; read-out: SSTR1 EC50. On the procedure: as §1
(§3) General overview: All SSTR subtypes are Gi coupled G-protein coupled receptors (GPCRs) that lead to decreases in intracellular cyclic AMP (cAMP) when activated by an agonist. […] One example of an intracellular cAMP assay is described below.

Another assay concerns the target SSTR3 (UniProt P32745). Nature of the assay: cAMP functional agonist assay, CHO cells expressing SSTR3. The note with it: CHO cells stably expressing SSTR3, cAMP. On the procedure:
as §1, §2

The target of the next assay is T3, SSTR4 (Homo sapiens, UniProt P31391).
T3 construct: expressed in transfected cells
T3 sequence (P31391 whole entry): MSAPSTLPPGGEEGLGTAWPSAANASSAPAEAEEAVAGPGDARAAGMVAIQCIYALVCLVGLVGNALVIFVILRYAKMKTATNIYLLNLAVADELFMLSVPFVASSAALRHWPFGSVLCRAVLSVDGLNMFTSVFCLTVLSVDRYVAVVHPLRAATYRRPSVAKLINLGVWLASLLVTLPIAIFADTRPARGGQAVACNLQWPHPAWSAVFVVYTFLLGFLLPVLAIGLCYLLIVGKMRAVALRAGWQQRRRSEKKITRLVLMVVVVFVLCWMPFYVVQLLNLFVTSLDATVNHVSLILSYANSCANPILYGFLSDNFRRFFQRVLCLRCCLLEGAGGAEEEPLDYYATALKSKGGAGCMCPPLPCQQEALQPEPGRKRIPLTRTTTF
Nature of the assay: cAMP functional agonist assay, CHO cells expressing SSTR4. To be noted: CHO cells stably expressing SSTR4, cAMP; read-out: SSTR4 EC50. The method, then:
as §1, §3

Another assay has as its target T4, SSTR5 (Homo sapiens, UniProt P35346).
T4 construct: expressed in transfected cells
The assay is described as follows: cAMP functional agonist assay, CHO cells expressing SSTR5. The note with it: CHO cells stably expressing SSTR5, cAMP. On the procedure:
as §1, §2

What is called EC50 is the concentration that produces a half-maximal response.

SSTR3, sequence (P32745 whole entry): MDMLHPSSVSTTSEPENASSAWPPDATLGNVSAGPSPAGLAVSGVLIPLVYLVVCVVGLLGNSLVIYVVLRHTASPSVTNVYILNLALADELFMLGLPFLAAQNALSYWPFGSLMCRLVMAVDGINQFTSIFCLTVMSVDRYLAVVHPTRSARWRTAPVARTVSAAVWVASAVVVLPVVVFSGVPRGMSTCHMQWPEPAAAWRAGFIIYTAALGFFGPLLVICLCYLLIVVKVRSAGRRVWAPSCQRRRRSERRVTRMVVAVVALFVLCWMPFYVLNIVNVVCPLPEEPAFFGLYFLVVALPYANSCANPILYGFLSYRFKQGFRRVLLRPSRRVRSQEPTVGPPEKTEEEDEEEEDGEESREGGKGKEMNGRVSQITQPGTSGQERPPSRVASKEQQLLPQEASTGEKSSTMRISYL
T1 sequence (P30874 whole entry): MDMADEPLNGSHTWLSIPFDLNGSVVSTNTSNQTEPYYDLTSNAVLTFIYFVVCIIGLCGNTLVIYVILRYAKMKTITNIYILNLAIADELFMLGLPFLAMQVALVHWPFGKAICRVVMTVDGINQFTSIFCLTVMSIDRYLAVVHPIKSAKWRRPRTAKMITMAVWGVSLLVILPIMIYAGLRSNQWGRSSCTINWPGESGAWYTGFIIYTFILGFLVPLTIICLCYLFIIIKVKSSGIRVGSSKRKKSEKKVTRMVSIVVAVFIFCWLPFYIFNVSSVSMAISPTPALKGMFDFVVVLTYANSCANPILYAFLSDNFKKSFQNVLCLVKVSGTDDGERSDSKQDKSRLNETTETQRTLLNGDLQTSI
T4 sequence (P35346 whole entry): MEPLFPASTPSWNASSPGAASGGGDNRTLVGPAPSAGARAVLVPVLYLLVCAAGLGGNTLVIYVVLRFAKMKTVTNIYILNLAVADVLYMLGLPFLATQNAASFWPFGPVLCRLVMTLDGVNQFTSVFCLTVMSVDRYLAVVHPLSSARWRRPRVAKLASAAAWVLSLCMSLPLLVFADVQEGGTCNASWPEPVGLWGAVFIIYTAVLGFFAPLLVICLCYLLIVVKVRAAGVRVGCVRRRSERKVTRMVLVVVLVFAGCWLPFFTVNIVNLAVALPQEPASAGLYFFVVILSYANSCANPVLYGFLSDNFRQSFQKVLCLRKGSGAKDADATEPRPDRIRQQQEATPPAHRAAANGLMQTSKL

In the case of `CCOC(=O)CNCCN(CC)Cc1c(-c2cc(C)cc(C)c2)cnc2ncn(-c3cccc(O)c3)c(=O)c12` [Compound A-68], the 50% effective concentration (EC50) is 100 to 10000 nM in assay [1]; greater than 10000 nM on SSTR1; greater than 10000 nM on SSTR3; 100 to 10000 nM on SSTR4; greater than 10000 nM on SSTR5.

`CCCN(CCN)Cc1c(-c2cc(C)cc(C)c2)cnc2ncn(-c3cccc(O)c3)c(=O)c12` [Compound A-4, 5-{[(2-aminoethyl)(propyl)amino]methyl}-6-(3,5-dimethylphenyl)-3-(3-hydroxyphenyl)-3H,4H-pyrido[2,3-d]pyrimidin-4-one]: the EC50 was less than 100 nM in assay [1]; 100 to 10000 nM at SSTR1; 100 to 10000 nM on SSTR3; less than 100 nM at SSTR4; 100 to 10000 nM at SSTR5.

As to `Cc1cc(Cl)cc(-c2cnc3ncn(-c4cc(F)cc(C(N)=O)c4)c(=O)c3c2CN(C)C[C@@H]2CCCN2)c1` [Compound A-50, 3-[6-(3-chloro-5-methylphenyl)-5-({methyl[(2S)-pyrrolidin-2-ylmethyl]amino}methyl)-4-oxo-3H,4H-pyrido[2,3-d]pyrimidin-3-yl]-5-fluorobenzamide], the EC50 in assay [1] was less than 100 nM; at SSTR1 it was 100 to 10000 nM; at SSTR3 it was 100 to 10000 nM; on SSTR4, less than 100 nM; on SSTR5 it was greater than 10000 nM.

As to `Cc1cc(C)cc(-c2cnc3ncn(-c4cccc(O)c4)c(=O)c3c2CN(CCN)Cc2ccccc2)c1` [Compound A-5, 5-{[(2-aminoethyl)(benzyl)amino]methyl}-6-(3,5-dimethylphenyl)-3-(3-hydroxyphenyl)-3H,4H-pyrido[2,3-d]pyrimidin-4-one], the EC50 is 100 to 10000 nM in assay [1], 100 to 10000 nM at SSTR3, less than 100 nM at SSTR4 and greater than 10000 nM at SSTR5.

`CC[C@H](N)CN(C)Cc1c(-c2cc(C)cc(C)c2)cnc2ncn(-c3cccc(O)c3)c(=O)c12` [Compound A-61, 5-({[(2S)-2-aminobutyl](methyl)amino}methyl)-6-(3,5-dimethylphenyl)-3-(3-hydroxyphenyl)-3H,4H-pyrido[2,3-d]pyrimidin-4-one]: the EC50 in assay [1] is less than 100 nM; at SSTR3, 100 to 10000 nM; at SSTR4 it was less than 100 nM; at SSTR5 it was greater than 10000 nM.

`Cc1cc(Cl)cc(-c2cnc3nc(C)n(-c4cc(F)cc(C#N)c4)c(=O)c3c2CN(C)C[C@@H]2CCCN2)c1` [Compound A-60, 3-[6-(3-chloro-5-methylphenyl)-2-methyl-5-({methyl[(2S)-pyrrolidin-2-ylmethyl]amino}methyl)-4-oxo-3H,4H-pyrido[2,3-d]pyrimidin-3-yl]-5-fluorobenzonitrile]: the EC50 was less than 100 nM in assay [1], 100 to 10000 nM on SSTR1, less than 100 nM on SSTR3 and less than 100 nM at SSTR4.

Take `Cc1cc(CO)cc(-c2cnc3ncn(-c4cccc(O)c4)c(=O)c3c2CN(C)C[C@@H]2CCCN2)c1` [Compound A-37, 6-[3-(hydroxymethyl)-5-methylphenyl]-3-(3-hydroxyphenyl)-5-({methyl[(2S)-pyrrolidin-2-ylmethyl]amino}methyl)-3H,4H-pyrido[2,3-d]pyrimidin-4-one]: the EC50 is less than 100 nM in assay [1], 100 to 10000 nM on SSTR3, less than 100 nM at SSTR4 and greater than 10000 nM on SSTR5.

As to “3-[5-({[(2S)-2-aminobutyl](methyl)amino}methyl)-6-(3,5-dimethylphenyl)-4-oxo-3H,4H-pyrido[2,3-d]pyrimidin-3-yl]-5-fluorobenzamide [Compound A-64]”, the EC50 was less than 100 nM in assay [1], 100 to 10000 nM on SSTR3, 100 to 10000 nM at SSTR4 and 100 to 10000 nM at SSTR5.

Consider `CCN(CCN)Cc1c(-c2cc(C)cc(Cl)c2)cnc2ncn(-c3cc(O)cc(F)c3)c(=O)c12` [Compound A-3, 5-(((2-aminoethyl)(ethyl)amino)methyl)-6-(3-chloro-5-methylphenyl)-3-(3-fluoro-5-hydroxyphenyl)pyrido[2,3-d]pyrimidin-4(3H)-one], for which the EC50 in assay [1] is less than 100 nM; on SSTR1, greater than 10000 nM; on SSTR3, 100 to 10000 nM; on SSTR4 it was less than 100 nM.

With `CN(Cc1c(-c2cccc(Cl)c2)cnc2ncn(-c3cccc(O)c3)c(=O)c12)CC1CCCCN1` (stereo not shown) [Compound A-24, 6-(3-chlorophenyl)-3-(3-hydroxyphenyl)-5-{[methyl(piperidin-2-ylmethyl)amino]methyl}-3H,4H-pyrido[2,3-d]pyrimidin-4-one], the EC50 in assay [1] was less than 100 nM; on SSTR1, 100 to 10000 nM; on SSTR3, less than 100 nM; at SSTR4 it was less than 100 nM.

For the compound `Cc1ccccc1-c1cnc2ncn(-c3cccc(O)c3)c(=O)c2c1CN(C)CC1CCCCN1` (stereo not shown) [Compound A-20, 3-(3-hydroxyphenyl)-5-{[methyl(piperidin-2-ylmethyl)amino]methyl}-6-(2-methylphenyl)-3H,4H-pyrido[2,3-d]pyrimidin-4-one], the concentration for a half-maximal effect (EC50) in assay [1] is 100 to 10000 nM; on SSTR3 it was 100 to 10000 nM; at SSTR4, less than 100 nM; at SSTR5, greater than 10000 nM.

With `Cc1cc(F)cc(-c2cnc3ncn(-c4cccc(O)c4)c(=O)c3c2CN(C)CC2CCCCN2)c1` (stereo not shown) [Compound A-25, 6-(3-fluoro-5-methylphenyl)-3-(3-hydroxyphenyl)-5-{[methyl(piperidin-2-ylmethyl)amino]methyl}-3H,4H-pyrido[2,3-d]pyrimidin-4-one], the EC50 was less than 100 nM in assay [1], 100 to 10000 nM at SSTR1, less than 100 nM on SSTR3 and less than 100 nM at SSTR4.

For the compound `Cc1c(F)cccc1-c1cnc2ncn(-c3cccc(O)c3)c(=O)c2c1CN(C)CC1CCCCN1` (stereo not shown) [Compound A-26, 6-(3-fluoro-2-methylphenyl)-3-(3-hydroxyphenyl)-5-{[methyl(piperidin-2-ylmethyl)amino]methyl}-3H,4H-pyrido[2,3-d]pyrimidin-4-one], the concentration for a half-maximal effect (EC50) is less than 100 nM in assay [1], less than 100 nM at SSTR3, less than 100 nM on SSTR4 and 100 to 10000 nM at SSTR5.

With `CCN(Cc1c(-c2cc(C)cc(C)c2)cnc2ncn(-c3cccc(O)c3)c(=O)c12)C[C@H](C)N` [Compound A-9, 5-({[(2S)-2-aminopropyl](ethyl)amino}methyl)-6-(3,5-dimethylphenyl)-3-(3-hydroxyphenyl)-3H,4H-pyrido[2,3-d]pyrimidin-4-one], the 50% effective concentration (EC50) is less than 100 nM in assay [1], 100 to 10000 nM on SSTR1, less than 100 nM on SSTR3 and less than 100 nM at SSTR4.

For `CC[C@H](N)CN(C)Cc1c(-c2cc(C)cc(Cl)c2)cnc2ncn(-c3cc(O)cc(F)c3)c(=O)c12` [Compound A-66, 5-({[(2S)-2-aminobutyl](methyl)amino}methyl)-6-(3-chloro-5-methylphenyl)-3-(3-fluoro-5-hydroxyphenyl)-3H,4H-pyrido[2,3-d]pyrimidin-4-one], the EC50 in assay [1] is less than 100 nM; at SSTR1, greater than 10000 nM; at SSTR3, 100 to 10000 nM; on SSTR4, less than 100 nM.

For `Cc1cc(Cl)cc(-c2cnc3ncn(-c4cccc(O)c4)c(=O)c3c2CN(C)C[C@@H]2CCCCN2)c1` [Compound A-29, 6-(3-chloro-5-methylphenyl)-3-(3-hydroxyphenyl)-5-({methyl[(2S)-piperidin-2-ylmethyl]amino}methyl)-3H,4H-pyrido[2,3-d]pyrimidin-4-one], the 50% effective concentration (EC50) was less than 100 nM in assay [1], 100 to 10000 nM at SSTR1, less than 100 nM on SSTR3 and less than 100 nM on SSTR4.
